Source: paper PMC11201590, “Enhancing Selective Antimicrobial and Antibiofilm Activities of Melittin through 6-Aminohexanoic Acid Substitution” (Biomolecules, 2024)
≈ marks a conversion by molar mass, not a printed value. Where two headings read alike, the source gives them in different places.

What was measured:
[1] = system: E. coli (KCTC 1682); test: Outer membrane permeability (NPN uptake); assay type: cell-based, Escherichia coli; conditions: varying peptide concentrations; NPN fluorescence
Experimental: The fluorescent probe NPN (1-N-phenylnaphthylamine) was utilized to measure the outer membrane permeability of Gram-negative E. coli. Mid-log phase E. coli cells were diluted to an OD600 of 0.05 after being washed three times in a buffer containing 5 mM HEPES, 20 mM glucose, and 5 mM KCN at pH 7.4. A 1 mM stock solution of NPN was prepared by dissolving NPN in acetone. To achieve a final concentration of 10 µM, 30 μL of the stock solution was added to the bacterial suspension. […] Fluorescence was then measured over time after the peptides were added, with the concentration increasing until it reached a steady state. ONPG (o-nitrophenyl-β-[…]), a […] substrate used for cytoplasmic membrane β-galactosidase enzyme, was employed to assess the release of β-galactosidase from E. coli ML-35, aiming to determine the inner membrane permeability of peptides. A 1.5 mM solution of ONPG was added to a sample buffer consisting of 10 mM sodium phosphate and 100 mM NaCl at pH 7.4, which was used to suspend mid-log phase E. coli ML-35 bacteria to an OD600 of 0.5. […] The fluorescence of ONPG increases when it is hydrolyzed to form o-nitrophenol. The permeability of the inner membrane of E. coli ML-35 bacteria was assessed by the influx of ONPG, a substance that was then broken down into o-nitrophenol, forming a yellow product, by the presence of β-galactosidase in the cytoplasm.

[2] = system: S. aureus; test: SYTOX green uptake assay; assay type: cell-based, Staphylococcus aureus; conditions: negative control
Experimental: The SYTOX green experiment was utilized to assess the impact of peptides on bacterial membrane permeabilization. S. aureus cells in the mid-log phase (OD600 = 0.5) were washed three times in a buffer containing 20 mM glucose and 5 mM HEPES (pH 7.4). Subsequently, the bacterial cell suspensions were diluted in a buffer consisting of 5 mM HEPES, 100 mM KCl, and 20 mM glucose, at pH 7.4, to a concentration of 1 × 10^6 CFU/mL. After incubating for fifteen minutes in complete darkness, 0.5 μM SYTOX green was added to the bacterial suspensions. The Shimadzu fluorescence spectrophotometer RF-5300PC (Shimadzu Scientific Instruments, Kyoto, Japan) was employed to monitor SYTOX green fluorescence following the addition of peptides at a concentration of 2 × MIC. In the Shimadzu fluorescence spectrophotometer, the excitation and emission wavelengths were set at 485 nm and 520 nm, respectively.

[3] = system: MDRPA; assay type: cell-based, Pseudomonas aeruginosa
Experimental: (§1) We assessed the antibiofilm activity of the peptides by determining their minimum biofilm eradication concentration (MBEC) and minimum biofilm inhibition concentration (MBIC) against drug-resistant bacteria, including MDRPA and MRSA, as previously described. A 96-well plate containing a subculture of 1 × 10^6 CFU/200 μL of bacteria was incubated overnight at 37 °C with or without peptides to test for biofilm inhibition and eradication. The untreated culture served as the negative control, and LL-37 was used as the control peptide.

[4] = system: S. epidermidis (KCTC 1917); assay type: cell-based, Staphylococcus epidermidis; conditions: CLSI broth dilution, MHB, 37 °C, 18 to 24 h
Experimental: (§2) Peptides were assessed for their antibacterial activity against four Gram-positive and four Gram-negative bacteria, including drug-resistant strains, in accordance with Clinical and Laboratory Standards Institute (CLSI) guidelines. The minimum inhibitory concentration (MIC) was determined using a microtiter broth dilution method. All bacterial strains were incubated overnight at 37 °C. Cultured bacteria were then diluted 10-fold in Muller–Hinton Broth (MHB) medium (Difco, Detroit, MI, USA) and incubated for 3 h to reach mid-log phase. Following the establishment of mid-log phase cultures, bacteria were inoculated into sterile 96-well plates containing serially diluted peptides. The MIC was defined as the lowest concentration of peptides that prevented observable turbidity after incubation of the plates at 37 °C for 18 to 24 h.

[5] = system: RAW 264.7 macrophage cells; test: Cytotoxicity, MTT assay; assay type: cell-based, mouse; conditions: 4 µM peptide, RAW 264.7, 48 h, triplicate
Experimental: We conducted the MTT assay (3-(4,5-dimethylthiazol-2-yl)-2,5-diphenyltetrazolium bromide) dye reduction experiment against RAW 264.7 macrophage cells to evaluate the cytotoxicity of the peptides, following previously published methods. RAW 264.7 cells were cultured for 24 h in the presence of 5% CO2 at 37 °C after seeding them in 96-well plates (2 × 10^4 cells/well). Subsequently, the peptides were treated at increasing concentrations and allowed to interact with the cells for 48 h. Following the incubation period, 20 μL of MTT solution (5 mg/mL in PBS) was added to each well, and the plate was further incubated at 37 °C for 4 h. The absorbance was then measured at 550 nm using a microplate ELISA reader after dissolving the formazan crystals in dimethyl sulfoxide (DMSO). Treatment with 0.1% Triton X-100 served as a positive control for 100% cytotoxicity. Each experiment was performed in triplicate.

[6] = system: four Gram-positive and four Gram-negative bacteria; assay type: cell-based; conditions: over the eight strains of Table 2
Experimental: as §2

[7] = system: MRSA; assay type: cell-based, Staphylococcus aureus
Experimental: as §1

[8] = 8 to 16 µM, sentence does not tell MRSA and MDRPA apart

## Buforin-2
[1]
  outer membrane permeability: No appreciable outer membrane permeability
[2]
  effect on SYTOX green fluorescence intensity: did not affect fluorescence intensity

## CC[C@H](C)[C@H](NC(=O)CN)C(=O)NCC(=O)N[C@@H](C)C(=O)N[C@H](C(=O)N[C@@H](CC(C)C)C(=O)N[C@@H](CCCCN)C(=O)N[C@H](C(=O)N[C@@H](CC(C)C)C(=O)N[C@H](C(=O)N[C@H](C(=O)NCC(=O)N[C@@H](CC(C)C)C(=O)N1CCC[C@H]1C(=O)N[C@@H](C)C(=O)N[C@@H](CC(C)C)C(=O)N[C@H](C(=O)N[C@@H](CO)C(=O)N[C@@H](Cc1c[nH]c2ccccc12)C(=O)N[C@H](C(=O)N[C@@H](CCCCN)C(=O)N[C@@H](CCCNC(=N)N)C(=O)N[C@@H](CCCCN)C(=O)N[C@@H](CCCNC(=N)N)C(=O)N[C@@H](CCC(N)=O)C(=O)N[C@@H](CCC(N)=O)C(N)=O)[C@@H](C)CC)[C@@H](C)CC)[C@@H](C)O)[C@@H](C)O)C(C)C)C(C)C [Melittin]
[3]; MDRPA, 8 µM peptide
  inhibition of biofilm formation: ~90%
[4]
  MIC: 8 µM (≈ 22.8 µg/mL)
[5]
  cell survival rate: less than 10%
[6]
  GM, geometric mean of the MIC: 10.5 µM
[7]; MRSA, 4 µM peptide
  inhibition of biofilm formation: ~90%

## CC[C@H](C)[C@H](NC(=O)[C@H](CCCCN)NC(=O)[C@H](CCC(=O)O)NC(=O)[C@H](CCCCN)NC(=O)[C@H](CO)NC(=O)[C@H](CCCCN)NC(=O)[C@H](CCCNC(=N)N)NC(=O)[C@H](Cc1ccccc1)NC(=O)[C@H](Cc1ccccc1)NC(=O)[C@H](CC(=O)O)NC(=O)CNC(=O)[C@H](CC(C)C)NC(=O)[C@@H](N)CC(C)C)C(=O)NCC(=O)N[C@@H](CCCCN)C(=O)N[C@@H](CCC(=O)O)C(=O)N[C@@H](Cc1ccccc1)C(=O)N[C@@H](CCCCN)C(=O)N[C@@H](CCCNC(=N)N)C(=O)N[C@H](C(=O)N[C@H](C(=O)N[C@@H](CCC(N)=O)C(=O)N[C@@H](CCCNC(=N)N)C(=O)N[C@H](C(=O)N[C@@H](CCCCN)C(=O)N[C@@H](CC(=O)O)C(=O)N[C@@H](Cc1ccccc1)C(=O)N[C@@H](CC(C)C)C(=O)N[C@@H](CCCNC(=N)N)C(=O)N[C@@H](CC(N)=O)C(=O)N[C@@H](CC(C)C)C(=O)N[C@H](C(=O)N1CCC[C@H]1C(=O)N[C@@H](CCCNC(=N)N)C(=O)N[C@H](C(=O)N[C@@H](CCC(=O)O)C(=O)N[C@@H](CO)C(=O)O)[C@@H](C)O)C(C)C)[C@@H](C)CC)C(C)C)[C@@H](C)CC [LL-37]
[3]; [8]
  inhibition of biofilm formation: approximately 50%
[7]; [8]
  inhibition of biofilm formation: approximately 50%
